Results on 4 molecules are retold here after ChEMBL document CHEMBL1158551, “Click reaction synthesis of carbohydrate derivatives from ristocetin aglycon with antibacterial and antiviral activity” (Bioorg Med Chem Lett, 2010).

The test system of assay [1] is Staphylococcus aureus. Description: Antibacterial activity against methicillin-[…] Staphylococcus aureus ATCC 33591 by broth microdilution method. The assay is classed as functional.
Assay [2] has as its system Staphylococcus epidermidis. Description: Antibacterial activity against Staphylococcus epidermidis by broth microdilution method. The assay is classed as functional. On the technique in general: Broth dilution looks for growth in wells or tubes with falling amounts of substance.
Assay [3] deals with Influenza A virus. In words: Antiviral activity against influenza A virus H1N1 assessed as inhibition of viral induced cytopathic effect. The assay is classed as functional, organism-based. In general terms: Damage to the host cells serves as the signal in cytopathic effect assays.
For assay [4], the system named is Influenza A virus. In words: Antiviral activity against Influenza A virus H3N2 assessed as cell viability by cell based MTS assay. It is filed as functional, organism-based.
In assay [5] the test system is Platelet. Description: Inhibition of ristocetin-induced platelet aggregation at 0.1 mg/ml. It is filed as functional, cell-based.
For assay [6], the system named is Staphylococcus epidermidis. Description: Antibacterial activity against biofilm positive Staphylococcus epidermidis ATCC 35984. The assay is classed as functional.
Assay [7] relates to Enterococcus faecalis. In words: Antibacterial activity against vancomycin-resistant and teicoplanin-sensitive Enterococcus faecalis ATCC 5129 expressing VanB gene by broth microdilution method. The assay is classed as functional.
In assay [8] the test system is Influenza A virus. In words: Antiviral activity against influenza A virus H1N1 assessed as cell viability by cell based MTS assay. The assay is classed as functional, organism-based.
For assay [9], the system named is Enterococcus faecalis. In words: Antibacterial activity against vancomycin and teicoplanin-sensitive Enterococcus faecalis ATCC 29212 by broth microdilution method. It is filed as functional.
The test system of assay [10] is Influenza B virus. In words: Antiviral activity against influenza B virus assessed as inhibition of viral induced cytopathic effect. It is filed as functional, organism-based.
Assay [11] deals with Enterococcus faecalis. In words: Antibacterial activity against vancomycin and teicoplanin-resistant Enterococcus faecalis 15376 expressing VanA gene by broth microdilution method. It is filed as functional.
Assay [12] relates to Influenza B virus. In words: Antiviral activity against influenza B virus assessed as cell viability by cell based MTS assay. It is filed as functional, organism-based. (Formazan colour is commonly taken as a measure of viable cells.)
The subject of assay [13] is Staphylococcus aureus. Description: Antibacterial activity against methicillin-[…] Staphylococcus aureus ATCC 29213 by broth microdilution method. The assay is classed as functional.
Assay [14] concerns Bacillus subtilis. Description: Antibacterial activity against Bacillus subtilis ATCC 6633 by broth microdilution method. It is filed as functional.
The test system of assay [15] is Influenza A virus. Description: Antiviral activity against Influenza A virus H3N2 assessed as inhibition of viral induced cytopathic effect. The assay is classed as functional, organism-based.

pEC50: −log10 of the molar value. Converted amounts (≈) assume the structure as drawn. The source made the active and inactive calls. The calls are words filed in the database; no cut-off is given here.

By pEC50 is commonly meant the EC50 on a negative log10 scale, so that one unit is a factor of ten. For the molecule `COC(=O)[C@@H]1NC(=O)[C@H]2NC(=O)[C@H](NC(=O)[C@@H]3NC(=O)[C@H]4NC(=O)[C@H](NC(=O)[C@H](n5cc(CO[C@H]6O[C@H](CO)[C@@H](O[C@H]7O[C@H](CO)[C@@H](O)[C@H](O)[C@H]7O)[C@H](O)[C@H]6O)nn5)c5ccc(O)c(c5)Oc5cc4cc(O)c5C)[C@H](O)c4ccc(cc4)Oc4cc3cc(c4O)Oc3ccc(cc3)[C@H]2O)c2ccc(O)c(c2)-c2c(O)cc(O)cc21`, the MBC in [1] was determined as 256 mg/L (≈ 162 µM); in assay [2] it was 2 mg/L (≈ 1.27 µM); in assay [6], 8 mg/L (≈ 5.06 µM); in assay [7], 256 mg/L (≈ 162 µM); in assay [9] it was 256 mg/L (≈ 162 µM); in assay [11], 256 mg/L (≈ 162 µM). Moreover, the MBC in assay [13] was 256 mg/L (≈ 162 µM); in [14], 4 mg/L (≈ 2.53 µM). Besides, the MIC in [1] was found to be 2 mg/L (≈ 1.27 µM); in assay [2], 1 mg/L (≈ 0.633 µM); in assay [6] it was 4 mg/L (≈ 2.53 µM); in [7], 32 mg/L (≈ 20.2 µM); in assay [9] it was 4 mg/L (≈ 2.53 µM); in [11], 8 mg/L (≈ 5.06 µM). The MIC in [13] and in [14] was 4 mg/L (≈ 2.53 µM) in each case. For the same molecule, the pEC50 was 4.80 in [3]; < 4.00 in [4]; 4.70 in assay [8]; 4.28 in [10]; 4.21 in assay [12]; < 4.00 in [15]. For the same molecule, the inhibition entry in assay [5] was “Active”.
For `COC(=O)[C@@H]1NC(=O)[C@H]2NC(=O)[C@H](NC(=O)[C@@H]3NC(=O)[C@H]4NC(=O)[C@H](NC(=O)[C@H](n5cc(CO[C@H]6O[C@H](CO)[C@@H](O)[C@H](O)[C@H]6NC(C)=O)nn5)c5ccc(O)c(c5)Oc5cc4cc(O)c5C)[C@H](O)c4ccc(cc4)Oc4cc3cc(c4O)Oc3ccc(cc3)[C@H]2O)c2ccc(O)c(c2)-c2c(O)cc(O)cc21`, the MBC in assay [1] amounted to 4 mg/L (≈ 2.74 µM); in assay [2], 4 mg/L (≈ 2.74 µM); in assay [6], 2 mg/L (≈ 1.37 µM); in [7] it was 256 mg/L (≈ 175 µM); in assay [9], 256 mg/L (≈ 175 µM); in [11], 256 mg/L (≈ 175 µM). The MBC was 2 mg/L (≈ 1.37 µM) in [13] and 8 mg/L (≈ 5.48 µM) in assay [14]. Also, the MIC in [1] was 4 mg/L (≈ 2.74 µM); in [2], 2 mg/L (≈ 1.37 µM); in assay [6], 2 mg/L (≈ 1.37 µM); in [7], 16 mg/L (≈ 11 µM); in assay [9], 8 mg/L (≈ 5.48 µM); in [11], 8 mg/L (≈ 5.48 µM). Besides, the MIC is 2 mg/L (≈ 1.37 µM) in [13] and 4 mg/L (≈ 2.74 µM) in assay [14]. Also, the pEC50 in [3] was 5.05; in assay [4], ≤ 4.14; in assay [8] it was 5.06; in assay [10], 4.49; in assay [12], 4.40; in [15], ≤ 4.35. The inhibition result in assay [5] was “inactive”.
Turning to `COC(=O)[C@@H]1NC(=O)[C@H]2NC(=O)[C@H](NC(=O)[C@@H]3NC(=O)[C@H]4NC(=O)[C@H](NC(=O)[C@H](n5cc(CO[C@H]6O[C@H](COC(C)=O)[C@@H](OC(C)=O)[C@H](OC(C)=O)[C@@H]6OC(C)=O)nn5)c5ccc(O)c(c5)Oc5cc4cc(O)c5C)[C@H](O)c4ccc(cc4)Oc4cc3cc(c4O)Oc3ccc(cc3)[C@H]2O)c2ccc(O)c(c2)-c2c(O)cc(O)cc21`, the MBC is 4 mg/L (≈ 2.52 µM) in assay [1]; 4 mg/L (≈ 2.52 µM) in [2]; 4 mg/L (≈ 2.52 µM) in assay [6]; 256 mg/L (≈ 161 µM) in assay [7]; 128 mg/L (≈ 80.7 µM) in assay [9]; 128 mg/L (≈ 80.7 µM) in assay [11]. The MBC in assay [13] came to 4 mg/L (≈ 2.52 µM); in [14] it was 8 mg/L (≈ 5.04 µM). Moreover, the MIC in [1] came to 2 mg/L (≈ 1.26 µM); in assay [2], 2 mg/L (≈ 1.26 µM); in [6], 4 mg/L (≈ 2.52 µM); in assay [7], 8 mg/L (≈ 5.04 µM); in assay [9], 4 mg/L (≈ 2.52 µM); in [11], 2 mg/L (≈ 1.26 µM). The MIC in assay [13] worked out at 2 mg/L (≈ 1.26 µM); in assay [14], 4 mg/L (≈ 2.52 µM). The pEC50 was 5.40 in assay [3]; < 4.00 in assay [4]; 5.30 in [8]; < 4.00 in assay [10]; < 4.00 in assay [12]; < 4.00 in assay [15].
Take `COC(=O)[C@@H]1NC(=O)[C@H]2NC(=O)[C@H](NC(=O)[C@@H]3NC(=O)[C@H]4NC(=O)[C@H](NC(=O)[C@H](n5cc(CO[C@H]6O[C@H](COC(C)=O)[C@@H](O[C@H]7O[C@H](COC(C)=O)[C@@H](OC(C)=O)[C@H](OC(C)=O)[C@H]7OC(C)=O)[C@H](OC(C)=O)[C@H]6OC(C)=O)nn5)c5ccc(O)c(c5)Oc5cc4cc(O)c5C)[C@H](O)c4ccc(cc4)Oc4cc3cc(c4O)Oc3ccc(cc3)[C@H]2O)c2ccc(O)c(c2)-c2c(O)cc(O)cc21`: the MBC in assay [1] was 4 mg/L (≈ 2.13 µM); in [2], 16 mg/L (≈ 8.53 µM); in [6], 8 mg/L (≈ 4.27 µM); in [7], 256 mg/L (≈ 137 µM); in assay [9], 256 mg/L (≈ 137 µM); in [11], 256 mg/L (≈ 137 µM). For the same molecule, the figures for the MBC in [13] and in assay [14] were 4 mg/L (≈ 2.13 µM) and 8 mg/L (≈ 4.27 µM), respectively. The MIC in assay [1] worked out at 1 mg/L (≈ 0.533 µM); in [2], 4 mg/L (≈ 2.13 µM); in assay [6], 4 mg/L (≈ 2.13 µM); in [7], 8 mg/L (≈ 4.27 µM); in assay [9], 4 mg/L (≈ 2.13 µM); in assay [11] it was 2 mg/L (≈ 1.07 µM). Also, the MIC in assay [13] came to 1 mg/L (≈ 0.533 µM); in assay [14], 8 mg/L (≈ 4.27 µM). Further, the pEC50 in assay [3], in [4], in assay [8], in assay [10], in assay [12] and in [15] was < 4.00 throughout.
